Reference: patent publication US20230414607A1, “METHODS OF TREATMENT” (BOW RIVER LLC, priority 2017, published 2023)
“And” between values parts separate entries of the source, which are not always exact repeats. Equal values may be shown once. Read-outs that look alike come from different tables or passages of the source.

Assays:
[1] = cited from earlier work
CYP3A4 [2] = molecular target: T1, CYP3A4 (Homo sapiens, UniProt P08684); details: for predicted lurasidone AUC levels (reported as GMR) greater than baseline: human
T1 sequence (P08684 whole entry): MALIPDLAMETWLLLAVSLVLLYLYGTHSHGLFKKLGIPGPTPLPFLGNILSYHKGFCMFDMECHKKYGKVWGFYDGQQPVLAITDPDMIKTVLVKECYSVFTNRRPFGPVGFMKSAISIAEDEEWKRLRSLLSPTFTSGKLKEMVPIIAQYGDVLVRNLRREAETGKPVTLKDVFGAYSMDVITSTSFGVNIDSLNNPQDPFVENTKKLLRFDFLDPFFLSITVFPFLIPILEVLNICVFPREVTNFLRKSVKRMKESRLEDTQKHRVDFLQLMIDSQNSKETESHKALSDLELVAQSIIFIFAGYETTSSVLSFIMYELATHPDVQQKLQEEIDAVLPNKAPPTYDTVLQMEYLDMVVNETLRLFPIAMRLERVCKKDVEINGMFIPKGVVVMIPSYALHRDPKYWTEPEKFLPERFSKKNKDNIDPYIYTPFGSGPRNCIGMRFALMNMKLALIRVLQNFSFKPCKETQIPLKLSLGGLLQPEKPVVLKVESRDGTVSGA
From the text: Blood plasma levels may be described in various ways, such as area under the plasma concentration curve (AUC) and peak plasma concentration (Cmax). Baseline levels and posaconazole interaction levels for CYP3A4 substrate drugs may be compared using the geometric mean ratio (GMR) of AUC and Cmax. […] GMR is the standard industry and regulatory method for assessing the ratio of change of a pharmacokinetic variable (such as AUC) relative to its own baseline value (e.g., in a patient that was not treated with posaconazole). Once the level of substrate drug (AUC or Cmax) during co-administration with posaconazole and a CYP3A4 substrate drug is known, a function can be derived using conventional pharmacological methods to estimate how the AUC or plasma level of the CYP3A4 substrate drug is expected to decay over time after stopping administration of posaconazole. Such a function can be used to provide a plot of the decay GMR of AUC (or Cmax) of the CYP3A4 substrate drug versus time due to its interaction with posaconazole, based on the stated half-life of posaconazole.
The expected DDI decay curve can also be calculated for Cmax GMR by substituting Cmax during co-administration for AUC during co-administration in equation 1. As used herein, “expected levels” and “predicted levels” and the like, refer to the AUC or Cmax GMR values calculated using equation 1.

[3] = Example 1: pharmacokinetic study with posaconazole and lurasidone in obese subjects; type: in vivo, human
Experimental: Inventors studied 6 obese male and female subjects (ages 18-50, BMI>35) taking Posaconazole oral tablets (300 mg qd) and Lurasidone (20 mg qd). Body weights and BMI measurements for the 6 subjects are provided below in Table 1.
Subjects were dosed with Lurasidone alone on Day 1, then subsequently dosed to steady-state Posaconazole levels, with a loading dose of 300 mg twice a day on Day 2 and 300 mg once a day thereafter over a period of 14 days. Posaconazole administration was then stopped and Lurasidone (20 mg qd) administered 2, 4, and 6 days after administration had ceased (studies days 17, 19, and 21 respectively).

[4] = cited from earlier work; remark: listed apart in the source
CYP3A4 [5] = molecular target: T1, CYP3A4; details: in vivo
From the text: The reduced dose of the CYP3A4 substrate drug may be administered with posaconazole, the day after stopping posaconazole, or two or more days (e.g., as described herein) after stopping posaconazole.
To mitigate this risk, in some embodiments the administration of the CYP3A4 substrate drug is contraindicated not just for co-administration with posaconazole, but the administration is also contraindicated for a period of time (e.g., 2 or more days) after stopping posaconazole beyond the label-prescribed delay of one day (i.e., contraindication for co-administration of the CYP3A4 substrate drug and posaconazole). In some embodiments, the present methods provide for administering the CYP3A4 substrate drug as soon as it is safe to do so, e.g., for time periods exceeding about 1 day, as described herein. […] This accounts for the need to treat the patient with the CYP3A4 substrate drug with no more delay (after stopping posaconazole) than is necessary, so that the risks of leaving such a patient untreated are minimized as much as possible.

CYP3A = assay: Example 2: lurasidone pharmacokinetics during and after posaconazole (drug-drug interaction); type: in vivo; details: human; for half-life: plasma, oral, read-out: Lurasidone elimination half-life, arithmetic mean ± S.E. (converted)
[6] = 2 days after stopping posaconazole

Structure (SMILES): O=C1[C@@H]2[C@H]3CC[C@H](C3)[C@@H]2C(=O)N1C[C@@H]1CCCC[C@H]1CN1CCN(c2nsc3ccccc23)CC1 [lurasidone]
- increase in the AUC of lurasidone associated with somnolence ([1]; about 3 fold increase in GMR): about 300%
- increase in AUC of lurasidone associated with akathisia ([1]; about 4 fold increase in GMR): 400%
- day after stopping posaconazole on which predicted AUC reaches baseline (CYP3A4 [2]): ~9 days
- predicted lurasidone AUC levels (reported as GMR) greater than baseline (CYP3A4 [2]; 1 day after stopping posaconazole): about 400%
- predicted lurasidone AUC levels (reported as GMR) greater than baseline (CYP3A4 [2]; [6]): about 300%
- Lurasidone AUC Ratio relative to Day 1 ([3]; Day 17, 2 days after Posaconazole was stopped, individual obese subjects): 2.98 and 1.78
- AUC ([3]; both sexes, human, in vivo, 20 mg, Day 17, 2 days after Posaconazole was stopped, individual obese subjects): 196 ng·h/mL
- post-Posaconazole treatment mean AUC ratio values for Lurasidone ([3]; both, human, in vivo): 3.6-4.3 ×
- post-Posaconazole treatment mean AUC ratios of Lurasidone, times higher than the baseline ([3]; both, human, in vivo): about 3 times
- normal baseline AUC: mean AUC0-tau ([4]; 120 mg lurasidone in the fed state after a 350 kcal meal): about 743 ng*h/mL
- normal baseline Cmax: mean Cmax ([4]; 120 mg lurasidone in the fed state following a 350 kcal meal): about 160 ng/mL
- actual AUC levels, fold greater than expected (CYP3A4 [5]; [6]): about 2 fold
- actual AUC levels, fold greater than expected (CYP3A4 [5]; 3 days after stopping posaconazole): 2-3 fold
- actual AUC levels, fold greater than expected (CYP3A4 [5]; 4 days after stopping posaconazole): 2.5-3.5 fold
- Corrected Cmax, arithmetic mean ± standard error (CYP3A; in vivo, 20 mg): 19.8 ± 4 ng/mL
- Cmax (CYP3A; in vivo, 20 mg, Corrected Cmax, arithmetic mean ± standard error): 17.1 ± 1.6 ng/mL
- half-life (CYP3A; 20 mg, Normal, Day 1 (baseline)): 9.4 h
- half-life (CYP3A; 20 mg, Normal, Day 20 (posaconazole given Days 4-17)): 39 ± 3 h
- half-life (CYP3A; 20 mg, Normal, Day 23 (posaconazole given Days 4-17)): 48 ± 5 h
- half-life (CYP3A; 20 mg, Normal, Day 26 (posaconazole given Days 4-17)): 50 ± 7 h
- half-life (CYP3A; 20 mg, Normal, Day 30 (posaconazole given Days 4-17)): 45 ± 9 h
- half-life (CYP3A; 20 mg, Obese, Day 1 (baseline)): 10.9 h
- half-life (CYP3A; 20 mg, Obese, Day 20 (posaconazole given Days 4-17)): 48 ± 4 h
- half-life (CYP3A; 20 mg, Obese, Day 23 (posaconazole given Days 4-17)): 52 ± 3 h
- half-life (CYP3A; 20 mg, Obese, Day 26 (posaconazole given Days 4-17)): 61 ± 4 h
- half-life (CYP3A; 20 mg, Obese, Day 30 (posaconazole given Days 4-17)): 71 ± 5 h
- half-life (CYP3A; Normal, Day 14 (with posaconazole)): 37 ± 4 h
- half-life (CYP3A; Obese, Day 14 (with posaconazole)): 38 ± 2 h
